According to ChEMBL document CHEMBL3632555, “Design, synthesis and biological evaluation of novel 1,2,4-triazolo [3,4-b][1,3,4] thiadiazines bearing furan and thiophene nucleus” (Eur J Med Chem, 2015):

Assays:
PC-3 [1] = assay: Cell cycle arrest in human PC3 cells assessed as accumulation at G2/M phase at 8 uM after 48 hrs by flow cytometry (Rvb=16.72%); type: functional
A549 [2] = assay: Potency index, ratio of IC50 for fluorouracil to IC50 for test compound for human A549 cells; type: functional
PC-3 [3] = assay: Cell cycle arrest in human PC3 cells assessed as accumulation at G0/G1 phase at 2 uM after 48 hrs by flow cytometry (Rvb=60.55%); type: functional
PC-3 [4] = assay: Cell cycle arrest in human PC3 cells assessed as accumulation at G2/M phase after 48 hrs by flow cytometry; type: functional, cell-based
PC-3 [5] = assay: Cell cycle arrest in human PC3 cells assessed as accumulation at Sub-G1 phase at 8 uM after 48 hrs by flow cytometry (Rvb=0.37%); type: functional
PC-3 [6] = assay: Cell cycle arrest in human PC3 cells assessed as accumulation at S phase at 2 uM after 48 hrs by flow cytometry (Rvb=21.10%); type: functional
HepG2 [7] = assay: Cytotoxicity against human HepG2 cells after 48 hrs by MTT assay; type: functional, cell-based; conditions: HepG2, 48 h
PC-3 [8] = assay: Cell cycle arrest in human PC3 cells assessed as accumulation at Sub-G1 phase at 4 uM after 48 hrs by flow cytometry (Rvb=0.37%); type: functional
PC-3 [9] = assay: Cytotoxicity against human PC3 cells after 48 hrs by MTT assay; type: functional, cell-based; conditions: PC-3, 48 h
PC-3 [10] = assay: Cell cycle arrest in human PC3 cells assessed as accumulation at G0/G1 phase at 4 uM after 48 hrs by flow cytometry (Rvb=60.55%); type: functional
PC-3 [11] = assay: Cell cycle arrest in human PC3 cells assessed as accumulation at G2/M phase at 4 uM after 48 hrs by flow cytometry (Rvb=16.72%); type: functional
PC-3 [12] = assay: Cell cycle arrest in human PC3 cells assessed as accumulation at S phase at 4 uM after 48 hrs by flow cytometry (Rvb=21.10%); type: functional
PC-3 [13] = assay: Cell cycle arrest in human PC3 cells assessed as accumulation at G2/M phase at 2 uM after 48 hrs by flow cytometry (Rvb=16.72%); type: functional
MCF7 = assay: Cytotoxicity against human MCF7 cells after 48 hrs by MTT assay; type: functional, cell-based; conditions: MCF7, 48 h
PC-3 [14] = assay: Cell cycle arrest in human PC3 cells assessed as accumulation at Sub-G1 phase at 2 uM after 48 hrs by flow cytometry (Rvb=0.37%); type: functional
PC-3 [15] = assay: Cell cycle arrest in human PC3 cells assessed as accumulation at G0/G1 phase at 8 uM after 48 hrs by flow cytometry (Rvb=60.55%); type: functional
PC-3 [16] = assay: Cell cycle arrest in human PC3 cells assessed as accumulation at S phase at 8 uM after 48 hrs by flow cytometry (Rvb=21.10%); type: functional
HepG2 [17] = assay: Potency index, ratio of IC50 for fluorouracil to IC50 for test compound for human HepG2 cells; type: functional
A549 [18] = assay: Cytotoxicity against human A549 cells after 48 hrs by MTT assay; type: functional, cell-based; conditions: A549, 48 h
PC-3 [19] = assay: Potency index, ratio of IC50 for fluorouracil to IC50 for test compound for human PC3 cells; type: functional

Structure (SMILES)	IC50 (HepG2 [7]) [µM]	IC50 (PC-3 [9]) [µM]	IC50 (MCF7) [µM]	IC50 (A549 [18]) [µM]	further results
COc1cc(-c2nnc3n2NC(c2cccs2)C(C(=O)c2ccc(C)cc2)S3)cc(OC)c1OC (centres undefined)	3.7	5.09	28.4	12.7	Activity (PC-3 [1]): 65.1%; Ratio IC50 (A549 [2]): 2; Activity (PC-3 [3]): 33.85%; Activity (PC-3 [4]): Dose-dependent effect; Activity (PC-3 [5]): 0.38%; Activity (PC-3 [6]): 15.52%; Activity (PC-3 [8]): 0.3%; Activity (PC-3 [10]): 29.4%; Activity (PC-3 [11]): 57%; Activity (PC-3 [12]): 12.53%; Activity (PC-3 [13]): 47.22%; Activity (PC-3 [14]): 0.92%; Activity (PC-3 [15]): 23.69%; Activity (PC-3 [16]): 9.79%; Ratio IC50 (HepG2 [17]): 11; Ratio IC50 (PC-3 [19]): 3
COc1cc(-c2nnc3n2NC(c2ccco2)C(C(=O)c2cccs2)S3)cc(OC)c1OC (centres undefined)	64.1	46.2	> 100	78.7	
COc1cc(-c2nnc3n2NC(c2ccco2)C(C(=O)C2CC2)S3)cc(OC)c1OC (centres undefined)	> 100	95.2	> 100	> 100	
COc1cc(-c2nnc3n2NC(c2ccco2)C(C(=O)c2ccc(C(F)(F)F)cc2)S3)cc(OC)c1OC (centres undefined)	> 100	77.5	33.6	37.1	
COc1cc(-c2nnc3n2NC(c2cccs2)C(C(=O)c2ccc(F)cc2)S3)cc(OC)c1OC (centres undefined)	54.2	27.4	43.6	45	
COc1cc(-c2nnc3n2NC(c2ccco2)C(C(=O)c2ccco2)S3)cc(OC)c1OC (centres undefined)	> 100	58.3	> 100	68.7	
COc1cc(-c2nnc3n2NC(c2ccco2)C(C(=O)c2ccc([N+](=O)[O-])cc2)S3)cc(OC)c1OC (centres undefined)	87.8	27.9	> 100	> 100	Ratio IC50 (PC-3 [19]): 0.62
COc1cc(-c2nnc3n2NC(c2ccco2)C(C(=O)c2ccccc2C)S3)cc(OC)c1OC (centres undefined)	63	88.4	69.9	80	
COc1cc(-c2nnc3n2NC(c2ccco2)C(C(=O)c2ccc(Cl)cc2)S3)cc(OC)c1OC (centres undefined)	78.6	67.8	> 100	51.4	
COc1cc(C(=O)C2Sc3nnc(-c4cc(OC)c(OC)c(OC)c4)n3NC2c2cccs2)cc(OC)c1OC (centres undefined)	> 100	> 100	71	> 100	
COc1cc(C(=O)C2Sc3nnc(-c4cc(OC)c(OC)c(OC)c4)n3NC2c2ccco2)cc(OC)c1OC (centres undefined)	> 100	52.2	> 100	48.3	
COc1cc(-c2nnc3n2NC(c2cccs2)C(C(=O)c2ccccc2)S3)cc(OC)c1OC (centres undefined)	> 100	86.3	> 100	69.4	
COc1cc(-c2nnc3n2NC(c2ccco2)C(C(=O)c2ccc(O)cc2)S3)cc(OC)c1OC (centres undefined)	> 100	38.3	88.9	93.4	
O=c1[nH]cc(F)c(=O)[nH]1 [FLUOROURACIL]		22.6	19.4	22.3	
COc1cc(-c2nnc3n2NC(c2ccco2)C(C(=O)c2ccc(-c4ccccc4)cc2)S3)cc(OC)c1OC (centres undefined)	> 100	45.9	> 100	> 100	
COc1cc(-c2nnc3n2NC(c2ccco2)C(C(=O)c2ccccc2)S3)cc(OC)c1OC (centres undefined)	90.9	64.3	39.8	33.4	
COc1cc(-c2nnc3n2NC(c2ccco2)C(C(=O)c2ccc(F)cc2)S3)cc(OC)c1OC (centres undefined)	> 100	27.7	> 100	53.7	Ratio IC50 (PC-3 [19]): 0.62
COc1ccc(C(=O)C2Sc3nnc(-c4cc(OC)c(OC)c(OC)c4)n3NC2c2cccs2)cc1 (centres undefined)	68	95.9	49.5	> 100	
COc1cc(-c2nnc3n2NC(c2ccco2)C(C(=O)c2ccc(Br)cc2)S3)cc(OC)c1OC (centres undefined)	> 100	36.4	> 100	42.1	Ratio IC50 (PC-3 [19]): 0.62
COc1cc(-c2nnc3n2NC(c2cccs2)C(C(=O)c2ccc(Cl)cc2)S3)cc(OC)c1OC (centres undefined)	13.2	32.5	42.8	20.1	
COc1ccc(C(=O)C2Sc3nnc(-c4cc(OC)c(OC)c(OC)c4)n3NC2c2ccco2)cc1 (centres undefined)	> 100	> 100	> 100	> 100	
COc1cc(-c2nnc3n2NC(c2ccco2)C(C(=O)c2ccccc2F)S3)cc(OC)c1OC (centres undefined)	> 100	> 100	94.8	78.7	
COc1cc(-c2nnc3n2NC(c2ccco2)C(C(=O)c2ccc(F)c(F)c2)S3)cc(OC)c1OC (centres undefined)	52.4	36	73.2	93.7	Ratio IC50 (PC-3 [19]): 0.62
COc1cc(-c2nnc3n2NC(c2ccco2)C(C(=O)c2cccc4ccccc24)S3)cc(OC)c1OC (centres undefined)	33.9	> 100	> 100	> 100	
COc1cc(-c2nnc3n2NC(c2ccco2)C(C(=O)c2ccc(C)cc2)S3)cc(OC)c1OC (centres undefined)	17.4	7.5	> 100	> 100	Ratio IC50 (HepG2 [17]): 2.7; Ratio IC50 (PC-3 [19]): 3
COc1cccc(C(=O)C2Sc3nnc(-c4cc(OC)c(OC)c(OC)c4)n3NC2c2ccco2)c1 (centres undefined)	> 100	84.6	> 100	> 100	
COc1cc(-c2nnc3n2NC(c2ccco2)C(C(=O)c2cccc(Br)c2)S3)cc(OC)c1OC (centres undefined)	> 100	63.9	91.8	36.9	
